Our source for the IC50 values is ChEMBL document CHEMBL4825705, “Iridoid Constituents of Viburnum brachybotryum” (J Nat Prod, 2021).

Structures can show the parent of a compound that is named as a salt.

For this assay, the system named is HCT-116. In words: Cytotoxicity against human HCT-116 cells assessed as cell growth inhibition measured after 48 hrs by MTT assay. The settings on record: HCT-116, 48 h. The format is functional, cell-based.
As to `COc1cccc2c1C(=O)c1c(O)c3c(c(O)c1C2=O)C[C@@](O)(C(=O)CO)C[C@@H]3O[C@H]1C[C@H](N)[C@H](O)[C@H](C)O1` [DOXORUBICIN HYDROCHLORIDE], the IC50 came to 0.16 µM.

For `C=C1[C@H]2O[C@@H](OC(=O)/C=C(/C)COC(C)=O)[C@H]3[C@@H]1CC(=O)[C@@]3(CO)O2`, the IC50 was 4.9 µM.

With `C=C1[C@H]2O[C@@H](OC(=O)/C=C(/C)COC(C)=O)[C@H]3[C@@H]1CC(=O)[C@@]3(CCl)O2`, the IC50 was 5.2 µM.
